Test [1] deals with TC-1 cells. Briefly: Compound 8 with HPV16 vaccine in TC-1 syngeneic mouse model, Biological Example 16. The class given is in vivo. Conditions: TC-1 tumor-bearing mice. On the procedure: Mice were implanted with 50,000 TC-1 cells/mouse subcutaneously into the right flank (at Day Zero (D0)). Thirteen days later (D13), when tumors measured approximately 50-100 mm^3, mice from appropriate groups (10 mice per group) were injected with HPV16 vaccine (s.c., total 2 doses, at D13 and Day 20 (D20)). […] Mice were euthanized when tumor exceeded 1500-2000 mm^3, according to IACUC guidelines. Survival was compared using GraphPad Prism using log-rank (Mantel-Cox) test. **=p<0.005 of treatment vs. Vehicle+Vaccine control group at Day 61.
TC-1 cells were derived by stable transfection of mouse lung epithelial cells with human papillomavirus strain 16 (HPV16) early proteins 6 and 7 (E6 and E7) and activated h-ras oncogene. Cells were obtained from Dr. T-C Wu (Johns Hopkins University). (Lin K Y, Guarnieri F G, Staveley-O'Carroll K F, Levitsky H I, August J T, Pardoll D M, et al. Treatment of established tumors with a novel vaccine that enhances major histocompatibility class II presentation of tumor antigen. Cancer Res 1996; 56:21-6).
The HPV16 vaccine was prepared as follows: The CTL epitope from HPV16 E749-57 (9 amino acid (aa) peptide, […], 100 μg/mouse, SEQ ID NO: 2) was mixed with synthetic T helper epitope PADRE (13 aa peptide, aK-Cha-[…]a, SEQ ID NO: 3, where “a” is D alanine and Cha is L-cyclohexylalanine, 20 ug/mouse) and with QuilA adjuvant (20 ug/mouse).

The target of test [2] is T1, Cbl-b (Homo sapiens (Human), UniProt Q13191). The test is described as follows: Cbl-b displacement assay (Cbl-b inhibition assay), Biological Example 12. It counts as binding. Conditions: 0.125 nM Cbl-b final concentration (Low); Table 12-1; read-out: Cbl-b IC50 (Low). In short, it runs like this: (§1)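 Biotinylated Avitag-Cbl-b (residues 36-427) at 0.5 nM ("High") or 0.125 nM ("Low") final was preincubated 1 h at room temperature with compound (1% DMSO) in 20 mM HEPES pH 7.5, 150 mM NaCl, 0.01% Triton X-100, 0.01% BSA, 0.5 mM TCEP. Then 150 nM BODIPY FL inhibitor probe (~EC40) plus 2 nM streptavidin-terbium, 1 h; TR-FRET 520/620 read, IC50 derived.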
T1 sequence (Q13191 36-427): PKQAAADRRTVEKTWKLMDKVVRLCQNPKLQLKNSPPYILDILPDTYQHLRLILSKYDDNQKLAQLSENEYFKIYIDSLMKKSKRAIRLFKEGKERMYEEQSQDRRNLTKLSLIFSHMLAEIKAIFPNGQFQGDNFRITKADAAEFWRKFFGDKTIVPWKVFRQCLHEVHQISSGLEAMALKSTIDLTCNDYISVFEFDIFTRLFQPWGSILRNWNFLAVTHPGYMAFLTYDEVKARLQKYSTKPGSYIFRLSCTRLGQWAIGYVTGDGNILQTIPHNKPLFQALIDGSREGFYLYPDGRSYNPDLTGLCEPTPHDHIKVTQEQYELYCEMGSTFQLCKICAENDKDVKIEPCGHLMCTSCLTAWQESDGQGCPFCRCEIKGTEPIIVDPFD

For test [3], the target named is T1, Cbl-b. The test is described as follows: Cbl-b displacement assay (Cbl-b inhibition assay), Biological Example 8. It counts as binding. The note with it: 0.125 nM Cbl-b final concentration (Low); Table 8-1; read-out: Cbl-b IC50 (Low). In a few lines: as §1
The test system of test [4] is primary human total T-cells. Briefly: Primary human total T-cell activation: IL-2 secretion, Biological Example 9. The class given is cell-based. The note with it: 48 hours, fold change over baseline; for fold induction at 1 µM: inhibitor 1 μM.
The subject of test [5] is primary human total T-cells. The test is described as follows: Primary human total T-cell activation: CD25 surface staining, Biological Example 13. The class given is cell-based. Conditions: 48 hours, fold change over baseline; for fold induction at 1 µM: inhibitor 1 μM.
Test [6] has as its system primary human total T-cells. Briefly: Primary human total T-cell activation: IL-2 secretion, Biological Example 13. It counts as cell-based. Conditions: 48 hours, fold change over baseline; for fold induction at 1 µM: inhibitor 1 μM.
For test [7], the target named is T1, Cbl-b. Briefly: Cbl-b displacement assay (Cbl-b inhibition assay), TR-FRET probe displacement, Biological Example 1. The class given is binding. Conditions: 0.5 nM Cbl-b final concentration (High); read-out: Cbl-b activity IC50 (High). In short, it runs like this: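 TR-FRET displacement of a BODIPY FL-labelled inhibitor probe (150 nM, ~EC40) from biotin-Avitag truncated Cbl-b, detected via 2 nM streptavidin-Tb, 1 h, room temperature. Compound in 1% DMSO pre-incubated 1 h with Cbl-b at 0.5 nM (High) or 0.125 nM (Low) in 20 mM HEPES pH 7.5, 150 mM NaCl, 0.5 mM TCEP.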
In general terms: In TR-FRET formats the signal depends on donor and acceptor labels being close together.

Test [8] relates to primary human total T-cells. Briefly: Primary human total T-cell activation: CD25 surface staining, Biological Example 9. It counts as cell-based. The note with it: 48 hours, fold change over baseline; for fold induction at 1 µM: inhibitor 1 μM.
[9] abbreviates: anti-CD3/anti-CD28 co-stimulation, inhibitor 0.3 μM, Table 9-1.
Where [10] appears, read: anti-CD3 alone, inhibitor 3 μM, Table 9-1.
Setting [11] is: anti-CD3/anti-CD28 co-stimulation, inhibitor 0.3 μM, Table 13-1.
The mark [12] stands for this setting: anti-CD3 alone, inhibitor 3 μM, Table 13-1.

A word on the IC50: it is the concentration that inhibits the measured activity by half. As to `C[C@@H]1CN(Cc2cc3c(c(C(F)(F)F)c2)CN(c2cccc(C4(Cc5nncn5C)COC4)c2)C3=O)CCC1(F)F` [Compound 8, (R)-6-((4,4-difluoro-3-methylpiperidin-1-yl)methyl)-2-(3-(3-((4-methyl-4H-1,2,4-triazol-3-yl)methyl)oxetan-3-yl)phenyl)-4-(trifluoromethyl)isoindolin-1-one], in test [1] (Compound 8 orally D13 to D35, HPV16 vaccine s.c. D13 and D20), the tumor growth result was “significant slowdown of tumor progression”. Moreover, the survival result in test [1] (Compound 8 orally D13 to D35 with HPV16 vaccine s.c. D13 and D20, vs. Vehicle+Vaccine) is “prolonged survival”. For the same molecule, the IC50 is below 1 nM in test [2], below 1 nM in test [3] and 5.1 to 100 nM in test [7]. For the same molecule, the fold induction at 0.3 µM in test [4] (setting [9]) was above 15; in test [5] (setting [11]), above 1.39; in test [6] (setting [11]) it was above 15; in test [8] (setting [9]), above 1.39. The fold induction at 1 µM in test [4] (anti-CD3/anti-CD28 co-stimulation, Table 9-1, read-out: IL-2 secretion CD3/CD28 1 μM) is above 15; in test [4] (anti-CD3 alone, Table 9-1, read-out: IL-2 secretion CD3 1 μM), above 0.66; in test [5] (anti-CD3/anti-CD28 co-stimulation, Table 13-1, read-out: CD25 staining CD3/CD28 1 μM) it was above 1.39; in test [5] (anti-CD3 alone, Table 13-1, read-out: CD25 staining CD3 1 μM), above 1.14; in test [6] (anti-CD3/anti-CD28 co-stimulation, Table 13-1, read-out: IL-2 secretion CD3/CD28 1 μM) it was above 15; in test [6] (anti-CD3 alone, Table 13-1, read-out: IL-2 secretion CD3 1 μM), above 0.66. Moreover, the fold induction at 1 µM in test [8] (anti-CD3/anti-CD28 co-stimulation, Table 9-1, read-out: CD25 staining CD3/CD28 1 μM) was above 1.39; in test [8] (anti-CD3 alone, Table 9-1, read-out: CD25 staining CD3 1 μM), above 1.14. For the same molecule, the fold induction at 3 µM in test [4] (setting [10]) was above 0.66; in test [5] (setting [12]) it was above 1.14; in test [6] (setting [12]), above 0.66; in test [8] (setting [10]), above 1.14.

Values taken from US11464802B2, “3-substituted piperidine compounds for Cbl-b inhibition, and use thereof” (Nurix Therapeutics, Inc., priority 2019, dated 2022).
